From patent US7091185B2, “Periodic antimicrobial peptides” (Dow Global Technologies Inc., priority 2003, dated 2006)
Read-outs that look alike come from different tables or passages of the source.

Legend:
E. coli ATCC 2592 = settings: ATCC 2592
P. aeruginosa ATCC 10145 = settings: ATCC 10145
[1] = system: S. aureus (methicillin resistant) ATCC 33591; settings: ATCC 33591
C. albicans 10231 = format: cell-based; settings: 10231
Method in brief: (§1)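 Broth microdilution per NCCLS, adapted for fungi with Sabouraud Dextrose Broth; KFAK-repeat peptide multimers in two-fold dilutions from 1,000 to 1 μg/ml. Growth by OD620 after overnight incubation; IC50 by sigmoidal fit, in duplicate, repeated at least twice.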

Cr. Neoformans 32045 = format: cell-based
Method in brief: as §1

Red blood cell toxicity = format: cell-based; settings: red blood cells (RBC)
Red blood cells (RBC) = assay: Red blood cell toxicity; format: cell-based
HeLa cell line = assay: HeLa MTS cellular reduction toxicity assay; format: cell-based; settings: for TX50: 24 h, MTS
Experimental: The RBC protocol was from Blondelle (2000) and is described generally as follows: The toxicity toward the HeLa cell line was determined using a MTS (3-(4-5-dimethylthiazol-2-yl)-5-(3carboxymethoxyphenyl)-2-(4-sulfophenyl)-2H-tetrazolium, sodium salt) cellular reduction assay. MTS (2 mg/mL) was prepared in Dulbecco PBS (pH 7.35), filtered, aliquoted and stored at minus 20° C. In 96 well flat bottomed plates, cell suspensions (250 μL of 6×10^4 cell/mL in each well) were incubated for 48 h at 37° C. (5% CO2 incubator). The peptides (50 μL) were then added to the cell monolayer (following aspiration of the media from each well and addition of 50 μL of Dulbecco's Modified Eagles Medium) at varying concentrations derived from serial 2-fold dilutions, and the plates incubated for 24 h at 37° C. (5% CO2 incubator). Proliferation was then determined by adding a solution of phenazine methosulfate (PMS: 0.92 mg/mL in DPBS) to MTS at a 1:20 ration just prior to the assay. Twenty microliters MTS-PMS solution were added to each well and the plates incubated for 1 h at 37° C. (5% CO2 incubator). The relative percent toxicity was determined by comparing the absorbance at 490 nm of each peptide to the absorbance of cells without peptide. The TX50 (concentration required for 50% toxicity) was calculated using a sigmoidal curve fitting software (Graphpad Prism).

P. aeruginosa ATCC 15442 = assay: HMARQ biocidal kill activity; format: cell-based; settings: P. aeruginosa ATCC 15442 (gram−)
Method in brief: (§2)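 Values are biocide ppm (μg/mL) needed for 3.5 log reduction relative to untreated controls after 15 min or 24 h exposure. Organisms were added to biocide-containing sample matrix (200–300 μL, mixed by vortex), then enumerated by most-probable-number 1:10 dilution series in TSB/resazurin.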

Staph. aureus ATCC 6538 = assay: HMARQ biocidal kill activity; format: cell-based; settings: Staph. aureus ATCC 6538 (gram+)
Method in brief: as §2

[2] = RBCs, concentration required for 50% toxicity, read-out: TX50

Substance: H-KKFAKKFAKKFAKKFAKKFAKKFA-OH [KKFA (6), KKFA KKFA KKFA KKFA KKFA KKFA]
- IC50 (E. coli ATCC 2592): 7 µg/mL
- MIC (E. coli ATCC 2592): 16 to 32 µg/mL
- IC50 (P. aeruginosa ATCC 10145): 33 µg/mL
- MIC (P. aeruginosa ATCC 10145): 62 µg/mL
- IC50 [1]: 136 µg/mL
- MIC [1]: >250 µg/mL
- IC50 (C. albicans 10231): 107 µg/mL
- MIC (C. albicans 10231): 125 to 250 µg/mL
- IC50 (Cr. Neoformans 32045): 12 µg/mL
- MIC (Cr. Neoformans 32045): 32 to 62 µg/mL
- HC50 at 24 h (Red blood cell toxicity): > 500 µg/mL
- % kill at 250 μg/ml (Red blood cells (RBC)): 2%
- % kill at 500 μg/ml (HeLa cell line): 76.4%
- TX50 (HeLa cell line): >500 µg/mL
- ppm needed for 3.5 log kill at 15 min (P. aeruginosa ATCC 15442): >500 ppm
- ppm needed for 3.5 log kill at 24 hr (P. aeruginosa ATCC 15442): 8 ppm
- ppm needed for 3.5 log kill at 15 min (Staph. aureus ATCC 6538): >500 ppm
- ppm needed for 3.5 log kill at 24 hr (Staph. aureus ATCC 6538): 63 ppm

Substance: H-LKKLLKKLLKKLLKKLLKKL-OH [LKKL (5), LKKL LKKL LKKL LKKL LKKL]
- IC50 (E. coli ATCC 2592): 49 µg/mL
- MIC (E. coli ATCC 2592): 62 to 125 µg/mL
- IC50 (P. aeruginosa ATCC 10145): 27 µg/mL
- MIC (P. aeruginosa ATCC 10145): 62 µg/mL
- IC50 [1]: 69 µg/mL
- MIC [1]: >250 µg/mL
- IC50 (C. albicans 10231): 211 µg/mL
- MIC (C. albicans 10231): >500 µg/mL
- IC50 (Cr. Neoformans 32045): 55 µg/mL
- MIC (Cr. Neoformans 32045): 62 to 125 µg/mL
- HC50 at 24 h (Red blood cell toxicity; [2]): 9 µg/mL
- % kill at 250 μg/ml (Red blood cells (RBC)): 100%
- % kill at 500 μg/ml (HeLa cell line): −0.7%
- TX50 (HeLa cell line): 31 µg/mL
- ppm needed for 3.5 log kill at 15 min (P. aeruginosa ATCC 15442): >500 ppm
- ppm needed for 3.5 log kill at 24 hr (P. aeruginosa ATCC 15442): 8 ppm
- ppm needed for 3.5 log kill at 15 min (Staph. aureus ATCC 6538): >500 ppm
- ppm needed for 3.5 log kill at 24 hr (Staph. aureus ATCC 6538): 125 ppm

Substance: H-LKKLLKKLLKKLLKKLLKKLLKKLLKKL-OH [LKKL (7), LKKL LKKL LKKL LKKL LKKL LKKL LKKL]
- IC50 (E. coli ATCC 2592): 41 µg/mL
- MIC (E. coli ATCC 2592): 62 to 125 µg/mL
- IC50 (P. aeruginosa ATCC 10145): 96 µg/mL
- MIC (P. aeruginosa ATCC 10145): 125 µg/mL
- IC50 [1]: 252 µg/mL
- MIC [1]: >250 µg/mL
- IC50 (C. albicans 10231): 199 µg/mL
- MIC (C. albicans 10231): 250 to 500 µg/mL
- IC50 (Cr. Neoformans 32045): 85 µg/mL
- MIC (Cr. Neoformans 32045): 100 to 125 µg/mL
- HC50 at 24 h (Red blood cell toxicity; [2]): 9 µg/mL
- % kill at 250 μg/ml (Red blood cells (RBC)): 100%
- % kill at 500 μg/ml (HeLa cell line): −0.4%
- TX50 (HeLa cell line): 25 µg/mL
- ppm needed for 3.5 log kill at 15 min (P. aeruginosa ATCC 15442): 125 ppm
- ppm needed for 3.5 log kill at 24 hr (P. aeruginosa ATCC 15442): 8 ppm
- ppm needed for 3.5 log kill at 15 min (Staph. aureus ATCC 6538): 4 ppm
- ppm needed for 3.5 log kill at 24 hr (Staph. aureus ATCC 6538): 125 ppm

Substance: H-LKLKLKLKLKLKLKLK-OH [LK (8), LK LK LK LK LK LK LK LK]
- IC50 (E. coli ATCC 2592): 65 µg/mL
- MIC (E. coli ATCC 2592): >125 µg/mL
- IC50 (P. aeruginosa ATCC 10145): 125 µg/mL
- MIC (P. aeruginosa ATCC 10145): 130 µg/mL
- IC50 [1]: 56 µg/mL
- MIC [1]: 125 to 250 µg/mL
- IC50 (C. albicans 10231): 162 µg/mL
- MIC (C. albicans 10231): 250 to 500 µg/mL
- IC50 (Cr. Neoformans 32045): 9.7 µg/mL
- MIC (Cr. Neoformans 32045): 32 to 63 µg/mL
- HC50 at 24 h (Red blood cell toxicity; [2]): > 500 µg/mL
- % kill at 250 μg/ml (Red blood cells (RBC)): 13%
- % kill at 500 μg/ml (HeLa cell line): 43.5%
- TX50 (HeLa cell line): 122 µg/mL
- ppm needed for 3.5 log kill at 15 min (P. aeruginosa ATCC 15442): 8 ppm
- ppm needed for 3.5 log kill at 24 hr (P. aeruginosa ATCC 15442): 16 ppm
- ppm needed for 3.5 log kill at 15 min (Staph. aureus ATCC 6538): 31 ppm
- ppm needed for 3.5 log kill at 24 hr (Staph. aureus ATCC 6538): 4 ppm

Substance: H-LKLKLKLKLKLKLKLKLKLKLK-OH [LK (11), LK LK LK LK LK LK LK LK LK LK LK]
- IC50 (E. coli ATCC 2592): 50 µg/mL
- MIC (E. coli ATCC 2592): >125 µg/mL
- IC50 (P. aeruginosa ATCC 10145): 51 µg/mL
- MIC (P. aeruginosa ATCC 10145): 62 µg/mL
- IC50 [1]: 111 µg/mL
- MIC [1]: >250 µg/mL
- IC50 (C. albicans 10231): 185 µg/mL
- MIC (C. albicans 10231): 250 to 500 µg/mL
- IC50 (Cr. Neoformans 32045): 26 µg/mL
- MIC (Cr. Neoformans 32045): 32 to 62 µg/mL
- HC50 at 24 h (Red blood cell toxicity; [2]): > 500 µg/mL
- % kill at 250 μg/ml (Red blood cells (RBC)): 24%
- % kill at 500 μg/ml (HeLa cell line): 43.8%
- TX50 (HeLa cell line): 202 µg/mL
- ppm needed for 3.5 log kill at 15 min (P. aeruginosa ATCC 15442): 16 ppm
- ppm needed for 3.5 log kill at 24 hr (P. aeruginosa ATCC 15442): 8 ppm
- ppm needed for 3.5 log kill at 15 min (Staph. aureus ATCC 6538): 16 or less ppm
- ppm needed for 3.5 log kill at 24 hr (Staph. aureus ATCC 6538): 4 ppm
